Measured values taken from patent US20260364030A1, “NOVEL SELECTIVE INHIBITORS OF LYSYL OXIDASES” (Syntara Limited, priority 2022, published 2026).
pIC50: −log10 of the molar value. Read-outs that look alike come from different tables or passages of the source.

Key:
Type in all cases: biochemical
LOXL2 [1] = molecular target: T1, LOXL2 (Homo sapiens, UniProt Q9Y4K0); experiment: LOXL2 inhibition, Amplex Red oxidation assay
T1 sequence (Q9Y4K0 26-774): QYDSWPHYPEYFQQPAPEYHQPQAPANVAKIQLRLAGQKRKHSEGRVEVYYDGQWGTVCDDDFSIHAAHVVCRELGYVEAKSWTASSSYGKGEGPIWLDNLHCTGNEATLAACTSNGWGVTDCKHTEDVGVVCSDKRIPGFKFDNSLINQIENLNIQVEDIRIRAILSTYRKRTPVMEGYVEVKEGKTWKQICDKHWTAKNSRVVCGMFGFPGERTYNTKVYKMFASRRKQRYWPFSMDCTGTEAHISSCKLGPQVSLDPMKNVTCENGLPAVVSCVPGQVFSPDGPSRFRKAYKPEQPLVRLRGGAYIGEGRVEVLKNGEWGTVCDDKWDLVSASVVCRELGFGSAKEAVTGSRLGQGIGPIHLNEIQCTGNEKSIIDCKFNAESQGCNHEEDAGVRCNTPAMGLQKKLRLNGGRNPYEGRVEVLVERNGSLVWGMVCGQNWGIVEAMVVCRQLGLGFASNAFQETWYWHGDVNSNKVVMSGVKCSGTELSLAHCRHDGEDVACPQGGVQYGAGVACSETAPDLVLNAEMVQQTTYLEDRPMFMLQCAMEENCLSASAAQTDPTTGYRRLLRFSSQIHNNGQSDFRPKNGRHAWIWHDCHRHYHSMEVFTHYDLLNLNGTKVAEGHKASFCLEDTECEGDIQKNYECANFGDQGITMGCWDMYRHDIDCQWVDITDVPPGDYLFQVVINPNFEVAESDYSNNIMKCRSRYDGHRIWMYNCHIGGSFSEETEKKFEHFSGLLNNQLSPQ
Description: LOX and LOXL protein family members can be acquired as recombinant active proteins from commercial sources, or extracted from animal tissues like bovine aorta, tendons, pig skin; or prepared from cell cultures. The inhibitory effects of the compounds of the present invention were tested against the given LOX or LOXL preparation using a method based on the detection of hydrogen peroxide with an Amplex Red oxidation assay [Zhou et al, 1997]. The assay was developed using either 384 or 96 well format. Briefly, in a standard black, clear bottom 384 well plate assay 25 µL of a dilution of any of the isoenzymes and orthologues in 1.2 M urea, 50 mM sodium borate buffer (pH 8.2) were added into each well in the presence of […] and 0.5 mM pargyline (to inhibit SSAO and MAO-B and MAO-A, respectively; not necessary if the enzyme is from a recombinant or purified form). […] of a reaction mixture containing twice the KM concentration of putrescine (Sigma Aldrich, e.g. 20 mM for LOX and LOXL1 or 10 mM for LOXL2 and 4 mM for LOXL3 and LOXL4), 120 µM Amplex Red (Thermo Fisher Scientific) and 1.5 U/mL horseradish peroxidase (Sigma Aldrich) prepared in 1.2 M urea, 50 mM sodium borate buffer (pH 8.2) were then added to the corresponding wells. The above volumes were doubled in the case of 96 wells plate. The fluorescence (RFU) was read every 2.5 min for 30 min at 37 °C, excitation 544 nm and emission 590 (Optima; BMG labtech). The slope/min of the kinetics for each well was calculated using MARS data analysis software (BMG labtech) and this value was used to deduce the IC50 value (Dotmatics). The ability of the inventive compounds to inhibit the amine oxidase activity of LOX and other family members is shown in Table 5.

Human recombinant LOXL3 = Human recombinant LOXL3 (Homo sapiens, UniProt P58215); experiment: LOXL3 inhibition, Amplex Red oxidation assay; details: 30 min incubation with enzyme at 37 °C
Sequence of Human recombinant LOXL3 (P58215 26-753): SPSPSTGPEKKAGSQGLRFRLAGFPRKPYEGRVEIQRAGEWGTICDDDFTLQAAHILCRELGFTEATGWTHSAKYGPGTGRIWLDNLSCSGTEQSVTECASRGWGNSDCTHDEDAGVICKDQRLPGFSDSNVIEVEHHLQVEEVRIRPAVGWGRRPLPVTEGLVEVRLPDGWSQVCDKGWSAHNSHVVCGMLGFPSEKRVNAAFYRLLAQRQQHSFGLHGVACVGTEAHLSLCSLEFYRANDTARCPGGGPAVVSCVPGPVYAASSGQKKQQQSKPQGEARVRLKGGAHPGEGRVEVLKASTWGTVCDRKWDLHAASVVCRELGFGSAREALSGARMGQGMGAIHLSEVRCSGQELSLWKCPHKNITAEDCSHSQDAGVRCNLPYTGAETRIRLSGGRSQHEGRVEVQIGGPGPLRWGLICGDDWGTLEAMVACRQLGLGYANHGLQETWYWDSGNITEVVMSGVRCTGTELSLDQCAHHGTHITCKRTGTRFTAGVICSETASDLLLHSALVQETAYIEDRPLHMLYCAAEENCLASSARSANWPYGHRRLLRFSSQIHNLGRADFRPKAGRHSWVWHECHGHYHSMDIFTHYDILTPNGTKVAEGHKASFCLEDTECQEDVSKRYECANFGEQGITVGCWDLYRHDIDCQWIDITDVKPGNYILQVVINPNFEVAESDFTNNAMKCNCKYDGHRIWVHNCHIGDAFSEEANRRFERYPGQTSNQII
Description: LOX and LOXL protein family members can be acquired as recombinant active proteins from commercial sources, or extracted from animal tissues like bovine aorta, tendons, pig skin; or prepared from cell cultures. The inhibitory effects of the compounds of the present invention were tested against the given LOX or LOXL preparation using a method based on the detection of hydrogen peroxide with an Amplex Red oxidation assay [Zhou et al, 1997]. The assay was developed using either 384 or 96 well format. Briefly, in a standard black, clear bottom 384 well plate assay 25 µL of a dilution of any of the isoenzymes and orthologues in 1.2 M urea, 50 mM sodium borate buffer (pH 8.2) were added into each well in the presence of […] and 0.5 mM pargyline (to inhibit SSAO and MAO-B and MAO-A, respectively; not necessary if the enzyme is from a recombinant or purified form). Test compounds were dissolved in DMSO and tested in a Concentration Response Curve (CRC) with 11 data points, typically in the micromolar or nanomolar range after incubation with the enzyme for 30 min at 37 °C. […] The fluorescence (RFU) was read every 2.5 min for 30 min at 37 °C, excitation 544 nm and emission 590 (Optima; BMG labtech). The slope/min of the kinetics for each well was calculated using MARS data analysis software (BMG labtech) and this value was used to deduce the IC50 value (Dotmatics). […]

LOXL2 [2] = molecular target: T1, LOXL2; experiment: Jump dilution experiment, sustained inhibition of LOXL2; details: for LOXL2 enzyme activity recovery: at 21-30 min after jump dilution, 10×IC50, 40 min preincubation at 37 °C; for Sustained inhibition of LOXL2: jump dilution, 21-30 min
Description: Jump Dilution experiment: The assay was developed using a 96 well format and the starting enzyme concentration was set 100 times higher than for the inhibition studies. The enzyme was incubated for 40 minutes at 37 °C in presence of 10×IC50 concentrations of the test inhibitor. After the incubation, the mixture was diluted 50x in assay buffer, followed by a further 2× dilution in Amplex Red-horseradish peroxidase-putrescine reaction mix (as for Example 2) prior to the fluorescence measurement. Results were expressed in % recovery of the signal at 21-30 min by comparison with non-inhibited controls. LOXL1 is used as a surrogate for LOX owing to similar pharmacological behaviour.

[3] = 30 min incubation with enzyme at 37 °C, read-out: Human recombinant LOXL2 Activity IC50

| SMILES | pIC50 (LOXL2 [1]; [3]) | pIC50 (Human recombinant LOXL3) | LOXL2 enzyme activity recovery (LOXL2 [2]) [%] | Sustained inhibition of LOXL2 (LOXL2 [2]) | pIC50 (LOXL2 [1]; 2 h incubation with enzyme at 37 °C, read-out: Human LOXL2 Activity IC50) |
| --- | --- | --- | --- | --- | --- |
| N#CCCN [BAPN, β-aminopropionitrile, reference compound] | 6.40 | 6.30 | 11.2 | sustained inhibition | – |
| NC/C(=C\F)CS(=O)(=O)c1ccccc1 [Compound 1, (E)-3-fluoro-2-((phenylsulfonyl)methyl)prop-2-en-1-amine] | 5.32 | 5.23 | 2.5 | sustained inhibition | > 5.70 |
